Numbered stars: 1 amine (or outer) side, 2 acyl side, 3 side chain; on linkers, the order of the positions; unused ones are H or OH. Bridge positions count the residues as written; N and C are the ends. Square brackets hold non-standard residues; d marks the D form. Peptide text beside a SMILES is read from it. * marks the point of attachment. Orn(4R-OH,5R-OCH2CH2NMe3+) = C[N+](C)(C)CCO[C@@H](N[*:3])[C@H](O)C[C@H](N[*:1])C(=O)[*:2]; hTyr(3S-OH,4S-OH) = N[C@H](C(=O)O)[C@H](O)[C@@H](O)c1ccc(O)cc1; X1 = CCCCCOc1cc(F)c(C#Cc2ccc3cc(C(=O)*)ccc3c2)cc1F; Pro(3S-OH,4S-Me) = C[C@H]1CN[C@H](C(=O)O)[C@H]1O; Hyp = O=C(O)[C@@H]1C[C@@H](O)CN1
How the values were obtained:
[1] = rat, in vivo, iv
[2] = tested on: Pichia guilliermondii ATCC 6260; experiment: MIC assay, yeast-type fungi (CLSI M27-A3); type: cell-based; conditions: Meyerozyma guilliermondii, ATCC6260, 24 h, 35° C.
Procedure: (§1) After gradient dilution of test compounds, an MIC assay was performed on a Candida standard strain, and an MEC assay was performed on an Aspergillus standard strain. […] A cryopreserved strain was passaged at least 2 times. A single colony was picked and resuspended in a physiological saline or sterile water tube, and the tube was subjected to vortex shaking. The Candida suspension was adjusted to 0.5 McF (1×10^6-5×10^6 CFU/mL) at a wavelength of 530 nm by using a spectrophotometer. After being diluted 50 times with physiological saline, the Candida suspension was diluted 20 times with 1×RPMI 1640 broth (1×10^3-5×10^3 CFU/mL). 10 μL of the diluted Candida suspension was coated on an SDA plate for colony counting, with a range of about 10-50 single colonies. After a prepared drug sensitive plate was completely dissolved at room temperature, the Candida suspension was added to the 96-well plate by using a multi-channel pipettor at 100 μL/well. At this time, the concentration of Candida in each well should be 0.5×10^3-2.5×10^3 CFU/mL. A yeast-type fungus assay plate was placed in an incubator, and incubated for 24 h at 35° C. and 85% humidity, and then the MIC values were read. For echinocandin-based drugs, Aspergillus was incubated for 21-26 h at 28° C., and then the MEC results were read. Yeast-type fungi: A 96-well plate was attached with a disposable parafilm, shaken for uniformly mixing, and observed with naked eyes by using a plate reader microscope. […] Pictures were taken and saved by using an automated plate reader.

[3] = tested on: Aspergillus fumigatus ATCC 204305; experiment: MEC assay, Aspergillus standard strain (CLSI M38-A2); type: cell-based; conditions: 21-26 h, 28° C.
Procedure: After gradient dilution of test compounds, an MIC assay was performed on a Candida standard strain, and an MEC assay was performed on an Aspergillus standard strain.
The colonies on the plate were covered with 0.85% physiological saline (1 mL) or sterile water (polysorbate 20 was added to a final concentration of 0.1%-0.01%). […] The resuspension of spore hyphae was transferred to a sterile test tube, and left to stand for 3-5 min to precipitate heavier particles. The homogeneous suspension on the upper layer was transferred to a new sterile test tube, and the tube was capped closely, and subjected to vortex shaking for 15 s (note: the suspension can produce an aerosol when the cap is reopened). The concentration of the suspension was adjusted to an OD value of 0.09-0.13 at 530 nm by using a spectrophotometer. […] Within 2 h after dilution, 100 μL of the diluted suspension was added to each well in a 96-well plate (the concentration of spores in the final drug sensitive plate should be 0.4×10^4-5×10^4 CFU/mL).
In order to accurately determine MEC value, vortex oscillation should not be allowed before reading the plate.

[4] = tested on: Candida albicans ATCC 18804; experiment: MIC assay, Candida standard strain (CLSI M27-A3); type: cell-based; conditions: ATCC18804, 24 h, 35° C.
Procedure: as §1

[5] = tested on: Candida albicans ATCC MYA-574; experiment: MIC assay, Candida standard strain (CLSI M27-A3); type: cell-based; conditions: 24 h, 35° C.
Procedure: as §1

[6] = tested on: Candida albicans ATCC 10231; experiment: MIC assay, Candida standard strain (CLSI M27-A3); type: cell-based; conditions: ATCC10231, 24 h, 35° C., >50% growth inhibition
Procedure: as §1

[7] = tested on: Candida albicans CMCC 98001; experiment: MIC assay, Candida standard strain (CLSI M27-A3); type: cell-based; conditions: CMCC98001, 24 h, 35° C.
Procedure: as §1

[8] = tested on: Candida albicans ATCC MYA-4788; experiment: MIC assay, Candida standard strain (CLSI M27-A3); type: cell-based; conditions: 24 h, 35° C.
Procedure: as §1

[9] = tested on: C. parapsilosis ATCC 22019; experiment: MIC assay, Candida standard strain (CLSI M27-A3); type: cell-based; conditions: Lodderomyces parapsilosis, ATCC22019; C. parapsilosis ATCC 22019 (quality-control strain); 24 h, 35° C.
Procedure: as §1

[10] = tested on: Candida albicans ATCC MYA-427; experiment: MIC assay, Candida standard strain (CLSI M27-A3); type: cell-based; conditions: 24 h, 35° C.
Procedure: as §1

[11] = tested on: C. glabrata ATCC 15126; experiment: MIC assay, Candida standard strain (CLSI M27-A3); type: cell-based; conditions: Nakaseomyces glabratus, ATCC15126, 24 h, 35° C.
Procedure: as §1

[12] = tested on: Candida albicans CICC 1943; experiment: MIC assay, Candida standard strain (CLSI M27-A3); type: cell-based; conditions: CICC1943, 24 h, 35° C.
Procedure: as §1

[13] = tested on: Candida albicans ATCC 90029; experiment: MIC assay, Candida standard strain (CLSI M27-A3); type: cell-based; conditions: ATCC90029, 24 h, 35° C.
Procedure: as §1

[14] = tested on: Candida albicans ATCC 76485; experiment: MIC assay, Candida standard strain (CLSI M27-A3); type: cell-based; conditions: ATCC76485, 24 h, 35° C.
Procedure: as §1

[15] = tested on: Candida albicans ATCC 64124; experiment: MIC assay, Candida standard strain (CLSI M27-A3); type: cell-based; conditions: ATCC64124, 24 h, 35° C.
Procedure: as §1

[16] = tested on: Candida albicans ATCC MYA-1023; experiment: MIC assay, Candida standard strain (CLSI M27-A3); type: cell-based; conditions: 24 h, 35° C.
Procedure: as §1

[17] = tested on: C. tropicalis ATCC 750; experiment: MIC assay, Candida standard strain (CLSI M27-A3); type: cell-based; conditions: ATCC750, 24 h, 35° C.
Procedure: as §1

[18] = tested on: Candida albicans ATCC 14053; experiment: MIC assay, Candida standard strain (CLSI M27-A3); type: cell-based; conditions: ATCC14053, 24 h, 35° C.
Procedure: as §1

[19] = tested on: Candida albicans ATCC 90028; experiment: MIC assay, Candida standard strain (CLSI M27-A3); type: cell-based; conditions: ATCC90028, 24 h, 35° C., >50% growth inhibition
Procedure: as §1

[20] = tested on: C. krusei ATCC 6258; experiment: MIC assay, Candida standard strain (CLSI M27-A3); type: cell-based; conditions: Pichia kudriavzevii, ATCC6258; C. krusei ATCC 6258 (quality-control strain); 24 h, 35° C.
Procedure: as §1

[21] = tested on: Candida albicans ATCC MYA-2876; experiment: MIC assay, Candida standard strain (CLSI M27-A3); type: cell-based; conditions: 24 h, 35° C.
Procedure: as §1

[22] = in vivo; conditions: SD, rat, iv
[23] = tested on: Cryptococcus neoformans ATCC 208821; experiment: MIC assay, yeast-type fungi (CLSI M27-A3); type: cell-based; conditions: ATCC208821, 24 h, 35° C.

With `CCCCCOc1cc(F)c(C#Cc2ccc3cc(C(=O)N[C@H]4C[C@@H](O)[C@@H](OCC[N+](C)(C)C)NC(=O)[C@@H]5[C@@H](O)[C@@H](C)CN5C(=O)[C@H]([C@@H](C)O)NC(=O)[C@H]([C@H](O)[C@@H](O)c5ccc(O)cc5)NC(=O)[C@@H]5C[C@@H](O)CN5C(=O)[C@H]([C@@H](C)O)NC4=O)ccc3c2)cc1F` [Example 16] (X1-[Orn(4R-OH,5R-OCH2CH2NMe3+)]T[Hyp][hTyr(3S-OH,4S-OH)]T[Pro(3S-OH,4S-Me)]; lactam 1-C) the “drug exposure level (Cmax and AUC) and half-life (T1/2) in the blood plasma compared with rezafungin” value [1] was “significantly higher”, the MIC [2] was 0.25 µg/mL and the MEC [3] was at most 0.015 µg/mL. For the same compound, the MIC [4] was at most 0.015 µg/mL, the MIC [5] was at most 0.015 µg/mL and the MIC [6] was 0.03 µg/mL. For the same compound, the MIC [7] was at most 0.015 µg/mL, the MIC [8] was at most 0.015 µg/mL and the MIC [9] was 0.5 µg/mL. It also gave an MIC [10] of 0.03 µg/mL, an MIC [11] of 0.06 µg/mL and an MIC [12] of 0.03 µg/mL. For the same compound, the MIC [13] was at most 0.015 µg/mL, the MIC [14] was at most 0.015 µg/mL and the MIC [15] was at most 0.015 µg/mL. It also gave an MIC [16] of at most 0.015 µg/mL, an MIC [17] of at most 0.015 µg/mL and an MIC [18] of at most 0.015 µg/mL. The MIC [19] was 0.03 µg/mL, the MIC [20] was 0.06 µg/mL and the MIC [21] was at most 0.015 µg/mL. The AUC(0-inf) ([22]; 2.5 mg/kg) was 275 µg·h/mL, the AUC(0-t) ([22]; 2.5 mg/kg) was 206 µg·h/mL and the Cmax ([22]; 2.5 mg/kg) was 6080 ng/mL. For the same compound, the MRT last ([22]; 2.5 mg/kg) was 26.1 h, the Vd ([22]; 2.5 mg/kg) was 0.49 L/kg and the clearance ([22]; 2.5 mg/kg) was 0.15 mL/min/kg. It also gave a half-life ([22]; 2.5 mg/kg) of 37.3 h, an AUC(0-inf) ([22]; 5 mg/kg) of 424 µg·h/mL and an AUC(0-t) ([22]; 5 mg/kg) of 326 µg·h/mL. It also gave a Cmax ([22]; 5 mg/kg) of 12000 ng/mL, an MRT last ([22]; 5 mg/kg) of 24.2 h and a Vd ([22]; 5 mg/kg) of 0.591 L/kg. The clearance ([22]; 5 mg/kg) was 0.2 mL/min/kg, the half-life ([22]; 5 mg/kg) was 34.8 h and the MIC [23] was 8 µg/mL.

Source: patent publication US20250011365A1, “ECHINOCANDIN-BASED DRUG, AND PREPARATION METHOD THEREFOR AND USE THEREOF” (Shenzhen Sungening Biological Co., Ltd, priority 2023, published 2025)
